According to patent publication US9567569B2, “Methods of culturing and expanding mesenchymal stem cells” (Gamida Cell Ltd., priority 2012, dated 2017):
“Also recorded” adds a separate entry of the source.

Key:
[1] = tested on: Human bone marrow derived mesenchymal cells; assay: Expansion of mesenchymal stem cells in culture in the presence or absence of SR1 (cell counts, doubling time); assay type: cell-based
Description: (§1) Isolation—Human bone marrow derived mesenchymal cells were isolated based on their plastic adherence potential in expansion medium containing: High glucose DMEM and 10% Fetal Bovine Serum (FBS, Hyclone, Logan, Utah, USA), 0.05 mg/ml Gentamicin (Sigma) and 2 mM L-glutamine (Biological Industries, Israel). Cells were allowed to adhere for 3-4 days and non-adherent cells were washed out with medium changes. Expansion—Mesenchymal stem cells were isolated using plastic adherence method, as described above and cultured for several passages in a medium which comprises fetal bovine serum in the presence or absence of SR1 for three passages (StemRegenin1, BioVision cat#1967-1). Three concentrations 250, 1000 and 2500 nM of SR1 were examined. At about 80% confluence, adherent cells were collected following trypsin treatment, counted, characterized and re-seeded at a concentration of 1×10^3 cells/cm^2.

CD34+ cells = details: cited from earlier work
[2] = tested on: Human bone marrow derived mesenchymal cells; assay: FACS measurement of CD45, CD105 and VCAM1/CD106 on cultured mesenchymal stem cells; assay type: cell-based; details: with vs without SR1 under identical conditions
Description: as §1, with “Measurement of CD45, CD105” for “Three concentrations 250, 1000”, “VCAM1/CD106: following Trypsin treatment the” for “2500 nM of SR1 were examined. At about 80% confluence, adherent”, “analyzed for CD45, CD105 or CD106 expression in FACS using anti-human CD45 FITC, CD105 PE or CD106 APC antibodies.” for “collected following trypsin treatment, counted, characterized and re-seeded at a concentration of 1×10^3 cells/cm^2.”

[3] = target: T1, aryl hydrocarbon receptor (AhR) (Homo sapiens, UniProt P35869); details: cited from earlier work
T1 sequence (P35869 11-848): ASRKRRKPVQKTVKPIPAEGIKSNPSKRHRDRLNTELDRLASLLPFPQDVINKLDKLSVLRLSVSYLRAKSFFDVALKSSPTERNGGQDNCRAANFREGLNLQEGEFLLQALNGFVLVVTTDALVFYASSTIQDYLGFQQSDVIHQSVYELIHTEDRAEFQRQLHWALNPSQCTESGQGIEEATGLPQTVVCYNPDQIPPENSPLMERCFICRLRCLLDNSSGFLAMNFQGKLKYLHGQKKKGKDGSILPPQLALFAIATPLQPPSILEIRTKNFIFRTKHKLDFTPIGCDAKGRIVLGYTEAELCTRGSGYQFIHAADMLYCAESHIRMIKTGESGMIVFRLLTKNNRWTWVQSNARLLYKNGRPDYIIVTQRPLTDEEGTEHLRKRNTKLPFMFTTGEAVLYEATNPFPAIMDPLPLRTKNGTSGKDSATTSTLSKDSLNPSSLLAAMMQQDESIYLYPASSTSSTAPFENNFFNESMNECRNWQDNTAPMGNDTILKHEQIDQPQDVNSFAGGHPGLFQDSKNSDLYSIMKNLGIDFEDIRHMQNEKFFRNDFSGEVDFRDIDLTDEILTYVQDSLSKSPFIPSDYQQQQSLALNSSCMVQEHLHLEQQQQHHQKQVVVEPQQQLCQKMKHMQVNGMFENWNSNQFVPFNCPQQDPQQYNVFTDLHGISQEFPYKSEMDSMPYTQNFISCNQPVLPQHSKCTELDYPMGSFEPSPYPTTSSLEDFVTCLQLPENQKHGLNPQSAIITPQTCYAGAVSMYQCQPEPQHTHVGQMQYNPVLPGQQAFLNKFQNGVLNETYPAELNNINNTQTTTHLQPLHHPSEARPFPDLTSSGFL

CC(C)n1cnc2c(NCCc3ccc(O)cc3)nc(-c3csc4ccccc34)nc21 [SR1, 4-(2-(2-(benzo[b]thiophen-3-yl)-9-isopropyl-9H-purin-6-ylamino)ethyl)phenol]
effect on the proliferation of mesenchymal stem cells (cumulative count) ([1]; SR1 250, 1000 and 2500 nM vs control, three passages, FIGS. 1-3): proliferate more rapidly; also recorded: positive effect
most effective concentration for proliferation of mesenchymal stem cells ([1]; of 250, 1000 and 2500 nM examined): 250 nM
doubling time of mesenchymal stem cells ([1]; passage 2, with vs without SR1, FIG. 3): decreased
time for cultures to reach confluence ([1]; with vs without SR1): substantially shorter period of time
ex vivo expansion of CD34+ cells (CD34+ cells): promote the ex vivo expansion of CD34+ cells
CD45 and CD105 levels (percentage of CD105+CD45- cells) ([2]; FIG. 4): same CD45 and CD105 levels
VCAM1/CD106 expression (percentage of CD106+ cells) ([2]; FIG. 5): increase the fraction of CD106+ cells; also recorded: express more VCAM1/CD106 adhesion molecule
action on the aryl hydrocarbon receptor [3]: antagonizing
